{
  "source": "patent US6528295B2",
  "about": "“Protein phosphatase methylesterase” (priority 1998, dated 2003)",
  "key": {"[1]": {"target": "human PME-1 (Homo sapiens, UniProt Q9Y570)", "sequence (Q9Y570 2-386)": "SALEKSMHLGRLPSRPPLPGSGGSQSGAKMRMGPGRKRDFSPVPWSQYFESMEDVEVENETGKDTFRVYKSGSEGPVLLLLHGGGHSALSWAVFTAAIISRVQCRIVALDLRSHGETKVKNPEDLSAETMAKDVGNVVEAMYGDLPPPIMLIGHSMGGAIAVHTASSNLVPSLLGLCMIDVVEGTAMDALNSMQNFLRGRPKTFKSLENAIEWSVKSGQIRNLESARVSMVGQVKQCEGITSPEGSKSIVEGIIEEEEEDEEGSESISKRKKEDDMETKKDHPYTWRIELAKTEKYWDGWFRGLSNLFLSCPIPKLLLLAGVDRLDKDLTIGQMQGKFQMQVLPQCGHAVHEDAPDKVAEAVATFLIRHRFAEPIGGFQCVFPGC", "type": "biochemical"}, "[2]": {"tested_on": "PP2A methyltransferase", "settings": "cited from earlier work"}, "[3]": {"tested_on": "human PME-1", "type": "biochemical"}, "[4]": {"target": "T1, H59Q/PME-1 complex (Homo sapiens, UniProt P67775, H59Q)", "T1 construct": "expressed in transfected cells; host or cells: NIH3T3 (A3); MT-transformed NIH3T3 (A8); PME-1 is endogenous", "T1 sequence (P67775 whole entry H59Q)": "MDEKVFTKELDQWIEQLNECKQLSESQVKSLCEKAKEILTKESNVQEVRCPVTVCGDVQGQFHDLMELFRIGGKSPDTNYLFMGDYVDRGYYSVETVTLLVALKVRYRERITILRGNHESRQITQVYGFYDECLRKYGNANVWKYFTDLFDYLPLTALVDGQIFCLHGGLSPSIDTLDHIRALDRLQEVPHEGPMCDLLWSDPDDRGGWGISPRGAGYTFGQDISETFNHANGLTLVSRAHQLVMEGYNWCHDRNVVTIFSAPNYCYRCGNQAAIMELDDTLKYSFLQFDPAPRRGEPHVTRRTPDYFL", "T1 sequence (Q76MZ3 whole entry partner)": "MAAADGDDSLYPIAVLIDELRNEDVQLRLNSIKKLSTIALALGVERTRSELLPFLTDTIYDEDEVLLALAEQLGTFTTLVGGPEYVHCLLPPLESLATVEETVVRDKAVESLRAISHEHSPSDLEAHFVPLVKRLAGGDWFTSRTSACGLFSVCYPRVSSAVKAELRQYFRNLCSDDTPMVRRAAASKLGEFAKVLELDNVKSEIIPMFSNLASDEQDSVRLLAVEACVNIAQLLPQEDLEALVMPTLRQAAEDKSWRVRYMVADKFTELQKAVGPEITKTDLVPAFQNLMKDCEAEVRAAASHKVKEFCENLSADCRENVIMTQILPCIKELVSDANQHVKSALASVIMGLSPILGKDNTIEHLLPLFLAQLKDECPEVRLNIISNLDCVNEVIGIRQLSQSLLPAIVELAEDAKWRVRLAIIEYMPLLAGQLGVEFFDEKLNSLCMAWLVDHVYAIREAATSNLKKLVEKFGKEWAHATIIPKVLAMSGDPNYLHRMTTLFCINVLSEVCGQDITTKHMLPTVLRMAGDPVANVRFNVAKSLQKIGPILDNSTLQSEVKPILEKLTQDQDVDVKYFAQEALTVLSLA", "type": "binding, mouse"}, "[5]": {"target": "PP2A (Homo sapiens, UniProt P67775)", "sequence (P67775 whole entry)": "as the sequence (P67775 whole entry H59Q) above, with Q59H counted along it", "type": "biochemical"}, "[6]": {"tested_on": "46 kDa PP2A methylesterase", "settings": "cited from earlier work"}, "[7]": {"target": "T2, PME-1 (Mus musculus, UniProt Q8BVQ5)", "T2 construct": "endogenous in cells; host or cells: MT-transformed NIH3T3 cells (C subunit mutants stably transfected)", "T2 sequence (Q8BVQ5 1-386)": "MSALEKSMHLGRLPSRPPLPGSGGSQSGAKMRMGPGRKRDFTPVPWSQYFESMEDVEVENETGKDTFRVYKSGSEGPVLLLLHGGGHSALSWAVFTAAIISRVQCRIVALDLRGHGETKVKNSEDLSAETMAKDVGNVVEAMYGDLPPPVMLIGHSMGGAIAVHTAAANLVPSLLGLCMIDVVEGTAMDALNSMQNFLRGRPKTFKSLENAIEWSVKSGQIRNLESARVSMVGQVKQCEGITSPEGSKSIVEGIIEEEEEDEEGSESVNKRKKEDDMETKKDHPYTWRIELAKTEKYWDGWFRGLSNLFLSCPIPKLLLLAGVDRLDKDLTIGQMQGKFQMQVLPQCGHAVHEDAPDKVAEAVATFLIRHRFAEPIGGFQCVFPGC", "experiment": "Immunoprecipitation assay of PME-1 binding to H59Q/301Stop versus H59Q", "settings": "all seven experiments"}, "[8]": {"tested_on": "phosphorylase a and cdc2-phosphorylated histone H1", "experiment": "Phosphatase activity in anti-HA tag immunoprecipitates of wt and mutant C subunits", "type": "biochemical", "settings": "normalized to wt, four independent experiments"}},
  "note": "Entries after “also recorded” stand apart in the source; their conditions may differ. *1 amine or outer side, *2 acyl side, *3 side chain or, on linkers, in order; H or OH if unused. Where a SMILES comes first, the peptide text is derived from it. Bridges are numbered along the chain shown (N, C = ends). [ ]: non-standard residue; d: D form. Adda = CO[C@@H](Cc1ccccc1)[C@@H](C)/C=C(C)/C=C/[C@H](N[*:1])[C@H](C)C(=O)[*:2]; dAsp(3S-Me) = C[C@H](C(=O)[*:3])[C@@H](N[*:1])C(=O)[*:2]; d(γGlu) = O=C(O)[C@@H](CCC(=O)[*:2])N[*:1]; NMeDha = C=C(NC)C(=O)O",
  "data": [
    {"molecule": "O=S(=O)(F)Cc1ccccc1", "note": "[PMSF, phenylmethylsulfonyl fluoride]", "values": [
      {"measurement": "methylesterase activity of bacterially expressed PME-1", "setting": "[1]", "result": "not"}
    ]},
    {"molecule": "C=C1C(=O)N[C@H](C)C(=O)N[C@@H](CC(C)C)C(=O)N[C@@H](C(=O)O)[C@H](C)C(=O)N[C@@H](CCCNC(=N)N)C(=O)N[C@@H](/C=C/C(C)=C/[C@H](C)[C@H](Cc2ccccc2)OC)[C@H](C)C(=O)N[C@@H](C(=O)O)CCC(=O)N1C", "note": "[microcystin-LR] (R[Adda][d(γGlu)][NMeDha][dA]L[dAsp(3S-Me)]-OH; lactam N-7)", "values": [
      {"measurement": "inhibition of the PP2A methyltransferase", "setting": "[2]", "result": "inhibited"}
    ]},
    {"molecule": "C=C1[C@@H](O)[C@@H]2O[C@]3(CC[C@H](/C=C/[C@@H](C)[C@@H]4CC(C)=C[C@@]5(O[C@H](C[C@@](C)(O)C(=O)O)CC[C@H]5O)O4)O3)CC[C@H]2O[C@@H]1[C@@H](O)C[C@H](C)[C@H]1O[C@@]2(CCCCO2)CC[C@H]1C", "note": "[okadaic acid]", "values": [
      {"measurement": "methylesterase activity of bacterially expressed PME-1", "setting": "[3]", "result": "inhibited"},
      {"measurement": "inhibition of the PP2A methyltransferase", "setting": "[2]", "result": "inhibited"},
      {"measurement": "amount of PME-1 bound to (complexed with) H59Q C subunit", "setting": "[4]", "result": "reduce; also recorded: decreased"},
      {"measurement": "inhibition of PP2A", "setting": "[5]", "result": "97±4", "unit": "%"},
      {"measurement": "inhibition of the 46 kDa PP2A methylesterase", "setting": "[6]", "result": "inhibited"}
    ]},
    {"molecule": "[F-].[Na+]", "note": "[sodium fluoride]", "values": [
      {"measurement": "amount of PME-1 bound to (complexed with) H59Q C subunit", "setting": "[4]", "result": "reduce; also recorded: decreased"},
      {"measurement": "inhibition of PP2A", "setting": "[5]", "result": "91±10", "unit": "%"}
    ]},
    {"molecule": "H59Q/301Stop: double mutant combining H59Q with deletion of the nine C subunit carboxy-terminal amino acids 301-309", "values": [
      {"measurement": "overall mean reduction of PME-1 bound relative to H59Q", "setting": "[7]", "result": 28, "unit": "%"}
    ]},
    {"molecule": "sodium vanadate", "values": [
      {"measurement": "amount of PME-1 bound to (complexed with) H59Q C subunit", "setting": "[4]", "result": "not"},
      {"measurement": "inhibition of PP2A", "setting": "[5]", "result": "25±18", "unit": "%"}
    ]},
    {"molecule": "wt: HA-tagged wild-type PP2A C subunit", "values": [
      {"measurement": "C subunit-associated phosphatase activity, cdc2-phosphorylated Histone H1 (Mean ± s.d.)", "setting": "[8]; substrate cdc2-phosphorylated histone H1", "result": 100, "unit": "% wt"},
      {"measurement": "C subunit-associated phosphatase activity, phosphorylase a (Means ± s.d.)", "setting": "[8]; substrate phosphorylase a", "result": 100, "unit": "% wt"}
    ]}
  ]
}
